According to publication PMC5733478, “A Non-imaging High Throughput Approach to Chemical Library Screening at the Unmodified Adenosine-A3 Receptor in Living Cells” (Frontiers in Pharmacology, 2017):
Structures can show the parent of a compound that is named as a salt. Where two headings read alike, the source gives them in different places.

Molecular target: T1, human A3AR (Homo sapiens, UniProt P0DMS8)
T1 construct: expressed in transfected cells
T1 sequence (P0DMS8 1-318): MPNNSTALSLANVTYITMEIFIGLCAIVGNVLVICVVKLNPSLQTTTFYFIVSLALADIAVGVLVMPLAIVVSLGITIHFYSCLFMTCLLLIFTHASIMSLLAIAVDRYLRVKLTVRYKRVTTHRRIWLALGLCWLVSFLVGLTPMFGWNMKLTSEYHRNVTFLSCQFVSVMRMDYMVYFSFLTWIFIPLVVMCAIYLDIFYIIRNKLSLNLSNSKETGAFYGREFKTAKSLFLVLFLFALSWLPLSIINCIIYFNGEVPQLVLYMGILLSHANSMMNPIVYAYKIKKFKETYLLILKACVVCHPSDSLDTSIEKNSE
Assay: LOPAC library primary screen: single concentration (10 μM) inhibition of 25 nM CA200645 binding, PHERAstar FS

[1] = compounds tested at 10 µM, % of control wells (1% DMSO and 25 nM CA200645), whole live cells expressing the A3AR, mean ± SD, three experiments in duplicate
[2] = % of control wells (1% DMSO and 25 nM CA200645), compounds at 10 µM, whole live cells expressing the A3AR, mean ± SD, three experiments in duplicate

| SMILES | % 25 nM CA200645 binding [%] | further results |
| --- | --- | --- |
| CC(=O)CCCCn1c(=O)c2c(ncn2C)n(C)c1=O [Pentoxifylline] | 81.9 ± 17.4 | – |
| COc1ccc(/C=C/c2nc(NCCCN(C)C)c3ccccc3n2)cc1.Cl.Cl.O [CP-31398 dihydrochloride hydrate] | 111.8 ± 1.4 | – |
| O=C1CC2(CCCC2)CC(=O)N1CCCCN1CCN(c2ncccn2)CC1 [Buspirone hydrochloride] | 102.9 ± 6.0 | – |
| CCCCCCCCCCCCCCCCCCOCC(COP(=O)([O-])OCC[N+](C)(C)C)OC (stereo not drawn) [ET-18-OCH3] | 80.6 ± 4.5 | – |
| O=C(Nc1cccc(C(=O)Nc2ccc(S(=O)(=O)O)c3cc(S(=O)(=O)O)cc(S(=O)(=O)O)c23)c1)Nc1cccc(C(=O)Nc2ccc(S(=O)(=O)O)c3cc(S(=O)(=O)O)cc(S(=O)(=O)O)c23)c1 [NF 023] | 83.8 ± 25.8 | – |
| O=C(O)C1CCCNC1 (racemic) [(±)-Nipecotic acid] | 101.9 ± 5.9 | – |
| CC12NC(Cc3ccccc31)c1ccccc12.O=C(O)/C=C\C(=O)O (single isomer, unassigned; (+)) [(+)-MK-801 hydrogen maleate] | 104.8 ± 18.5 | – |
| Oc1c2ccccc2c2c3c(cccc13)N=N2 [SP600125] | 41.0 ± 10.4 | – |
| Br.C=CCN1CCc2cc(O)c(O)cc2C(c2ccccc2)C1 (racemic) [(±)-SKF 38393, N-allyl-, hydrobromide] | 99.7 ± 11.6 | – |
| NC/C=C\C(=O)O [cis-4-Aminocrotonic acid] | 103.0 ± 10.1 | – |
| NC[C@@H]1O[C@H](O[C@H]2[C@@H](O)[C@H](O[C@@H]3[C@@H](O)[C@H](N)C[C@H](N)[C@H]3O[C@H]3O[C@H](CO)[C@@H](O)[C@H](O)[C@H]3N)O[C@@H]2CO)[C@H](N)[C@@H](O)[C@@H]1O [Paromomycin sulfate] | 106.3 ± 7.8 | – |
| CCCCCCCCCCCCCCCCCC(=O)OC(CC(=O)O)C[N+](C)(C)C.[Cl-] (racemic) [DL-Stearoylcarnitine chloride] | 44.2 ± 6.0 | – |
| CC1COc2c(N3CCN(C)CC3)c(F)cc3c(=O)c(C(=O)O)cn1c23 (stereo not drawn) [Ofloxacin] | 93.4 ± 20.0 | – |
| O=C1NCC2(CCN(CCc3ccccc3)CC2)O1 [Fenspiride hydrochloride] | 81.2 ± 5.0 | – |
| CNC(=O)c1cc2c(cn1)[nH]c1ccccc12 [N-Methyl-beta-carboline-3-carboxamide] | 84.9 ± 8.4 | – |
| OC(CCN1CCCCC1)(c1ccccc1)C1CC2C=CC1C2 (stereo not drawn) [Biperiden hydrochloride] | 86.9 ± 6.4 | – |
| C[C@@H](N)[C@H]1CC[C@H](C(=O)Nc2ccncc2)CC1.Cl.Cl [Y-27632 dihydrochloride] | 98.6 ± 10.3 | – |
| O=C(O)C1CN(CCCP(=O)(O)O)CCN1 (racemic) [(±)-CPP] | 97.2 ± 1.5 | – |
| CCn1cnc2c(Nc3cccc(Cl)c3)nc(N[C@@H]3CCCC[C@@H]3N)nc21.Cl [CGP-74514A hydrochloride] | 94.1 ± 9.9 | – |
| O=C1CN(/N=C/c2ccc(-c3ccc([N+](=O)[O-])cc3)o2)C(O)=N1 [Dantrolene sodium] | 94.8 ± 9.5 | – |
| NS(=O)(=O)C#Cc1ccccc1 [Pifithrin-mu] | 92.3 ± 34.4 | – |
| O.O=c1cc(-c2ccccc2)oc2c(O)c(O)ccc12 [7,8-Dihydroxyflavone hydrate] | 68.2 ± 13.0 | – |
| Nc1ncnc2c1ncn2C1CCCC1 [9-cyclopentyladenine] | 102.2 ± 2.7 | – |

| SMILES | % 25 nM CA200645 binding [%] | further results |
| --- | --- | --- |
| CCC(=O)N1CCN(C(=O)c2ccccc2)CC1 [DM 235] | 105.1 ± 10.7 | – |
| CN(C)CCC=C1c2ccccc2COc2ccccc21 [Doxepin hydrochloride] | 110.0 ± 13.2 | – |
| NCCSSCCN [Cystamine dihydrochloride] | – | % 25 nM CA200645 binding (% of control wells (1% DMSO and 25 nM CA200645), compounds at 10 µM, whole live cells expressing A3AR, mean ± SD, three experiments in duplicate): 96.6 ± 12.8% |
| C#CCn1c(=O)c2c(ncn2C)n(C)c1=O [DMPX, reference compound] | – | hit in LOPAC primary screen (inhibited the binding of CA200645 by >40%) (10 μM compound, 25 nM CA200645, A3AR CHO cells): identified |
| CC(N)=O [Acetamide] | 96.1 ± 7.6 | – |
| Nc1ccc(S(=O)(=O)Nc2ccnn2-c2ccccc2)cc1 [Sulfaphenazole] | – | % 25 nM CA200645 binding [1]: 89.1 ± 34.9% |
| C#CCN(C)CCCOc1ccc(Cl)cc1Cl [Clorgyline hydrochloride] | – | % 25 nM CA200645 binding [1]: 96.0 ± 4.2% |
| Nc1nc(Cl)nc2c1ncn2[C@@H]1O[C@H](CO)[C@@H](O)[C@H]1O [2-Chloroadenosine] | 51.0 ± 6.7 | – |
| NCC(CP(=O)(O)O)c1ccc(Cl)cc1 (stereo not drawn) [Phaclofen] | 107.2 ± 18.9 | – |
| Cc1nc2ccccn2c(=O)c1CCN1CCC(C(=O)c2ccc(F)cc2)CC1 [Pirenperone] | – | % 25 nM CA200645 binding [2]: 88.6 ± 5.4% |
| CNS(=O)(=O)CCc1ccc2[nH]cc(C3CCN(C)CC3)c2c1 [Naratriptan hydrochloride] | – | % 25 nM CA200645 binding [1]: 102.9 ± 17.6% |
| Cn1c(=O)c2c(nc(C=Cc3cccc(Cl)c3)n2C)n(C)c1=O [8-(3-Chlorostyryl)caffeine] | 79.6 ± 7.9 | – |
| CCCN(CCC)CCc1cccc2c1CC(=O)N2 [Ropinirole hydrochloride] | 107.5 ± 15.4 | – |
| O=C(Nc1ccncc1)c1cc([N+](=O)[O-])ccc1Cl [T0070907] | 110.9 ± 6.0 | – |
| CN(C)CCC(c1ccc(Cl)cc1)c1ccccn1.O=C(O)/C=C\C(=O)O (racemic) [(±)-Chlorpheniramine maleate] | 99.2 ± 9.9 | – |
| Br.NCc1cc(O)no1 [Muscimol hydrobromide] | 107.5 ± 2.4 | – |
| N[C@@H](Cc1c[nH]c2ccccc12)C(=O)O [L-Tryptophan] | – | % 25 nM CA200645 binding [2]: 100.0 ± 3.7% |
| C[C@]12CC[C@@H]3c4ccc(O)cc4C[C@@H](CCCCCCCCC[S+]([O-])CCCC(F)(F)C(F)(F)F)[C@H]3[C@@H]1CC[C@@H]2O (stereo partly drawn) [Fulvestrant] | 100.4 ± 12.1 | – |
| C[C@]12CCC(=O)C=C1CC[C@@H]1[C@@H]2C(=O)C[C@@]2(C)[C@H]1CC[C@]2(O)C(=O)CO [Cortisone] | 94.0 ± 5.3 | – |
| Nc1nc(OCc2ccccc2)c2nc[nH]c2n1 [O6-benzylguanine] | 65.0 ± 6.0 | – |
| CCCOC(=O)c1c(-c2ccccc2)nc(CC)c(C(=O)SCC)c1CCC [MRS 1523, reference compound] | 57.3 ± 10.9 | % Total CA200645 binding (% of 25 nM CA200645 binding in the presence of 10 μM compound, LOPAC full screen, A3AR CHO cells): 58.3 ± 11.4% |
| O=C(O)CNC(=O)C(CS)Cc1ccccc1 (racemic) [DL-Thiorphan] | – | % 25 nM CA200645 binding [2]: 100.0 ± 12.5% |
| CCn1ccnc1CC1COc2ccccc2O1 (stereo not drawn) [Imiloxan hydrochloride] | – | % 25 nM CA200645 binding [2]: 97.3 ± 10.2% |

| SMILES | % 25 nM CA200645 binding [%] | further results |
| --- | --- | --- |
| CC(C)NCC(O)c1ccc(O)c(O)c1.Cl (single isomer, unassigned; (-)) [(-)-Isoproterenol hydrochloride] | 98.6 ± 14.4 | – |
| Cn1cnc2c1c(=O)[nH]c(=O)n2C [Theobromine] | 101.7 ± 4.5 | – |
| NCCCCCC(=O)O [6-Aminohexanoic acid] | 109.0 ± 9.6 | – |
| Cc1cc(NC(=O)Nc2ccc3c(ccn3C)c2)sn1 [SB 204741] | 88.1 ± 14.4 | – |
| CC(CCc1ccc(O)cc1)NCCc1ccc(O)c(O)c1 (stereo not drawn) [Dobutamine hydrochloride] | 101.9 ± 15.9 | – |
| O.O.O=C(Nc1ccc2c(c1)CCN(Cc1ncn[nH]1)C2)c1ccccc1-c1ccc(C(F)(F)F)cc1 [CP-346086 dihydrate] | 98.2 ± 12.5 | – |
| CCC1(c2ccccc2)C(=O)NCNC1=O [Primidone] | 96.1 ± 4.9 | – |
| CCCN1CCC[C@H](c2cccc(O)c2)C1.Cl [R(+)-3PPP hydrochloride] | 88.4 ± 12.1 | – |
| Oc1ccc(Cn2cc[nH]c2=S)cc1 [1-(4-Hydroxybenzyl)imidazole-2-thiol] | 87.3 ± 21.6 | – |
| N[C@H](C(=O)O)[C@H]1C[C@@H]1C(=O)O | 107.7 ± 15.6 | – |
| CCCCCCCCc1ccc(-c2ccc(C(=O)O)cc2)cc1 [AC-55649] | 83.6 ± 13.2 | – |
| OCCN1CCN(CCCN2c3ccccc3Sc3ccc(Cl)cc32)CC1 [Perphenazine] | 88.8 ± 23.6 | – |
| NCCc1ccc(O)c(O)c1 [Dopamine hydrochloride] | 93.0 ± 11.1 | – |
| Nc1nc(Cl)nc2c1ncn2[C@@H]1O[C@H](CO)[C@@H](O)[C@H]1O [2-CADO, reference compound] | – | % Total CA200645 binding: 51.0 ± 6.7% |
| NS(=O)(=O)c1cc(C(=O)O)c(NCc2ccco2)cc1Cl [Furosemide] | 95.7 ± 5.9 | – |
| COc1ccc2[nH]cc(CCNC(C)=O)c2c1 [Melatonin] | 106.6 ± 11.6 | – |
| Cc1cccc(-c2[nH]ncc2-c2ccc3ncccc3n2)n1 [RepSox] | 98.5 ± 5.4 | – |
| Nc1c2c(nc3ccccc13)CCCC2O.O=C(O)/C=C\C(=O)O (stereo not drawn) [Hydroxytacrine maleate] | 108.6 ± 13.0 | – |
| C[C@H]1CCC/C=C/[C@@H]2C[C@H](O)C[C@H]2[C@H](O)/C=C/C(=O)O1 | 87.5 ± 5.2 | – |
| CC/C(=C(\c1ccccc1)c1ccc(OCCN(C)C)cc1)c1ccccc1 [Tamoxifen] | 83.1 ± 23.3 | – |
| O=c1[nH]c2ccccc2c2ccccc12 [6(5H)-Phenanthridinone] | 41.6 ± 14.1 | – |
| Cl.Nc1c2c(nc3ccccc13)CCCC2 | 100.2 ± 15.6 | – |
